Legend:
NF-κB gene = experiment: Blocking of NF-κB gene expression
skin = experiment: Effects on skin at the tissue level (collagen, elastin, hair follicles, senile plaques)
Antioxidant effect = experiment: Antioxidant effect
Source text: At the same time, the molecular weight of gx-50 is so small that gx-50 is more easily absorbed via the skin.

In the case of `COc1ccc(CCNC(=O)/C=C/c2ccccc2)cc1OC` [gx-50], the “expression of the NF-κB gene” value (NF-κB gene) is reported as “effectively blocks the expression of the NF-κB gene”, the “loss of collagen and elastin in skin” value (skin) is reported as “helps prevent the loss of collagen and elastin in skin” and the antioxidant effect (Antioxidant effect) is reported as “possessing an antioxidant effect”.
